The source of these data is patent US9845297B2, “Antimicrobial compounds and methods of making and using the same” (Melinta Therapeutics, Inc., priority 2009, dated 2017).

One may read the MIC as the lowest concentration that inhibits growth of the organism.

This test deals with Eschericia coli strain ATCC25922. Put plainly: standard microdilution assay to determine minimum inhibitory concentrations (MICs). Format: cell-based. Particulars: Escherichia coli, ATCC25922, Eschericia coli strain ATCC25922, standard microdilution assay; read-out: E. coli ATCC25922 MIC. The procedure: Minimum inhibitory concentrations (MICs) are determined by the microdilution method, typically in a final volume of 100 microliters, according to protocols outlined by The Clinical and Laboratory Standards Institute [CLSI; formerly the National Committee for Clinical Laboratory Standards (NCCLS)]. See CLSI: Methods for dilution antimicrobial susceptibility tests for bacteria that grow aerobically; approved standard-fifth edition. Wayne, Pa.: NCCLS; 2000. The assays can be also be performed in microtiter trays according to conventional methodologies as published by the CLSI. See CLSI. Methods for Dilution Antimicrobial Susceptibility Tests for Bacteria That Grow Aerobically; Approved Standard-Seventh Edition. CLSI Document M7-A7 [ISBN 1-56238-587-9] CLSI, 940 West Valley Road, Suite 1400, Wayne Pa. 19087-1898 USA, 2006).
The compounds of the present invention were tested for antimicrobial activity. The compounds were run against Eschericia coli strain ATCC25922 using a standard microdilution assay to determine minimum inhibitory concentrations (MICs). […] A “N/A” means that data is unavailable. It will be recognized by one skilled in the art that the compounds can be assessed against other bacterial organisms and that the presentation of data for activity against Eschericia coli is illustrative and in no way is intended to limit the scope of the present invention. The compounds of the present invention can be assayed against a range of other microorganisms depending upon the performance activity desired to be gathered. Furthermore, the “+”, “−”, and “N/A” representation and the selection of a cutoff value of 16 micrograms/ml is also illustrative and in no way is intended to limit the scope of the present invention.
Background: Dilution methods test growth across graded concentrations, often in twofold steps.

As to `O=C(Nc1nc(=O)c(-c2ccc(CNCC3CC3)cc2)c[nH]1)Nc1ccccc1OC(F)(F)F` [Compound 274], the minimal inhibitory concentration (MIC) is greater than 16 µg/mL. For the molecule `O=C(Nc1nc(=O)c(-c2ccc(CNCC3CC3)cc2)c[nH]1)Nc1cc(F)c(F)cc1F` [Compound 275], the minimal inhibitory concentration (MIC) was greater than 16 µg/mL. Next, `O=C(Nc1nc(=O)c(-c2ccc(CNCCCO)cc2)c[nH]1)Nc1cc(F)c(F)cc1F` [Compound 276]: greater than 16 µg/mL; `O=C(Nc1nc(=O)c(-c2ccc(CNCCCO)cc2)c[nH]1)Nc1ccccc1OC(F)(F)F` [Compound 277]: greater than 16 µg/mL.

Take `NCCCNCc1ccc(-c2c[nH]c(NC(=O)Nc3ccccc3OC(F)(F)F)nc2=O)cc1` [Compound 278]: the MIC is less than 16 µg/mL.

In the case of `CSCCCNCc1ccc(-c2c[nH]c(NC(=O)Nc3cc(F)c(F)cc3F)nc2=O)cc1` [Compound 281], the MIC was greater than 16 µg/mL. Turning to `CSCCCNCc1ccc(-c2c[nH]c(NC(=O)Nc3ccccc3OC(F)(F)F)nc2=O)cc1` [Compound 282], the minimal inhibitory concentration (MIC) is greater than 16 µg/mL. Next, `O=C(Nc1nc(=O)c(-c2ccc(CNCC(O)CO)cc2)c[nH]1)Nc1ccccc1OC(F)(F)F` (centres unmarked) [Compound 283]: greater than 16 µg/mL; `O=C(Nc1nc(=O)c(-c2ccc(CNCC(O)CO)cc2)c[nH]1)Nc1cc(F)c(F)cc1F` (centres unmarked) [Compound 284]: greater than 16 µg/mL; `NCCCNCc1c(F)cc(-c2c[nH]c(NC(=O)Nc3ccccc3OC(F)(F)F)nc2=O)cc1F` [Compound 285]: greater than 16 µg/mL. Turning to `NCCCNCc1c(F)cc(-c2c[nH]c(NC(=O)Nc3cccc(Cl)c3Cl)nc2=O)cc1F` [Compound 286], the MIC is greater than 16 µg/mL. The figure for `NCCCNCc1c(F)cc(-c2c[nH]c(NC(=O)Nc3cc(F)c(F)cc3F)nc2=O)cc1F` [Compound 287] is greater than 16 µg/mL; for `Cn1ccnc1CNCc1ccc(-c2c[nH]c(NC(=O)Nc3ccccc3OC(F)(F)F)nc2=O)cc1` [Compound 290] it is greater than 16 µg/mL; for `O=C(Nc1nc(=O)c(-c2ccc(CNCc3nccs3)cc2)c[nH]1)Nc1ccccc1OC(F)(F)F` [Compound 291] it is greater than 16 µg/mL. For the molecule `NCCCN(CCCN)Cc1c(F)cc(-c2c[nH]c(NC(=O)Nc3ccccc3OC(F)(F)F)nc2=O)cc1F` [Compound 294], the minimum inhibitory concentration (MIC) is less than 16 µg/mL. Next, `NCCCN(CCCN)Cc1c(F)cc(-c2c[nH]c(NC(=O)Nc3cc(F)c(F)cc3F)nc2=O)cc1F` [Compound 295]: greater than 16 µg/mL; `NCCCN(CCCN)Cc1c(F)cc(-c2c[nH]c(NC(=O)Nc3cccc(Cl)c3Cl)nc2=O)cc1F` [Compound 297]: less than 16 µg/mL. On to `Cn1ccnc1CNCc1ccc(-c2c[nH]c(NC(=O)Nc3cc(F)c(F)cc3F)nc2=O)cc1` [Compound 299], for which the minimum inhibitory concentration (MIC) was greater than 16 µg/mL. Consider `O=C(O)CCNCc1ccc(-c2c[nH]c(NC(=O)Nc3ccccc3OC(F)(F)F)nc2=O)cc1` [Compound 300], for which the minimum inhibitory concentration (MIC) is greater than 16 µg/mL.

`C[S+]([O-])CCCNCc1ccc(-c2c[nH]c(NC(=O)Nc3cc(F)c(F)cc3F)nc2=O)cc1` (centres unmarked) [Compound 302]: the MIC was greater than 16 µg/mL. `CC(C)=CCN(CCCN)Cc1ccc(-c2c[nH]c(NC(=O)Nc3cc(F)c(F)cc3F)nc2=O)cc1` [Compound 303]: the MIC was less than 16 µg/mL.

As to `CC(C)=CCN(CCCN)Cc1ccc(-c2c[nH]c(NC(=O)Nc3ccccc3OC(F)(F)F)nc2=O)cc1` [Compound 304], the MIC was less than 16 µg/mL.

As to `NCCCN(CCCOC(=O)Nc1ccccc1OC(F)(F)F)Cc1ccc(-c2c[nH]c(NC(=O)Nc3ccccc3OC(F)(F)F)nc2=O)cc1` [Compound 305], the MIC is greater than 16 µg/mL.

Turning to `NCCCN(CCCN)Cc1ccc(-c2c[nH]c(NC(=O)Nc3cccc(Cl)c3Cl)nc2=O)cc1F` [Compound 307], the MIC was less than 16 µg/mL. The figure for `NCCCN(CCCN)Cc1ccc(-c2c[nH]c(NC(=O)Nc3ccccc3OC(F)(F)F)nc2=O)cc1F` [Compound 308] is less than 16 µg/mL; for `NCCCN(CCCN)Cc1ccc(-c2c[nH]c(NC(=O)Nc3cc(F)c(F)cc3F)nc2=O)cc1F` [Compound 311] it is greater than 16 µg/mL. Next, `NCCCN(Cc1ccc(-c2c[nH]c(NC(=O)Nc3ccccc3OC(F)(F)F)nc2=O)cc1)CC1CC1` [Compound 312]: less than 16 µg/mL; `O=C(Nc1nc(=O)c(-c2ccc(CNCc3ncc[nH]3)cc2)c[nH]1)Nc1cc(F)c(F)cc1F` [Compound 313]: greater than 16 µg/mL; `O=C(Nc1nc(=O)c(-c2ccc(CNCc3ncc[nH]3)cc2)c[nH]1)Nc1ccccc1OC(F)(F)F` [Compound 314]: greater than 16 µg/mL. Regarding `O=C(O)CCNCc1ccc(-c2c[nH]c(NC(=O)Nc3cc(F)c(F)cc3F)nc2=O)cc1` [Compound 315], the MIC is greater than 16 µg/mL. On to `CC(C)=CCNCc1ccc(-c2c[nH]c(NC(=O)Nc3ccccc3OC(F)(F)F)nc2=O)cc1` [Compound 316], for which the MIC is greater than 16 µg/mL. Next, `CC(C)=CCNCc1ccc(-c2c[nH]c(NC(=O)Nc3cc(F)c(F)cc3F)nc2=O)cc1` [Compound 317]: greater than 16 µg/mL. Next, `O=C(Nc1nc(=O)c(-c2ccc(CNCc3ccncc3)cc2)c[nH]1)Nc1ccccc1OC(F)(F)F` [Compound 319]: greater than 16 µg/mL; `NCCCN(CCC(=O)O)Cc1ccc(-c2c[nH]c(NC(=O)Nc3cc(F)c(F)cc3F)nc2=O)cc1` [Compound 320]: greater than 16 µg/mL.

Regarding `NCCCN(CCC(=O)O)Cc1ccc(-c2c[nH]c(NC(=O)Nc3ccccc3OC(F)(F)F)nc2=O)cc1` [Compound 321], the MIC was greater than 16 µg/mL. For `O=C(Nc1nc(=O)c(-c2ccc(CNCCc3ccncc3)cc2)c[nH]1)Nc1cc(F)c(F)cc1F` [Compound 322], the MIC is greater than 16 µg/mL. The figure for `O=C(Nc1nc(=O)c(-c2ccc(CNCCc3ccncc3)cc2)c[nH]1)Nc1ccccc1OC(F)(F)F` [Compound 323] is greater than 16 µg/mL. For the molecule `NCCCN(CCCO)Cc1ccc(-c2c[nH]c(NC(=O)Nc3ccccc3OC(F)(F)F)nc2=O)cc1` [Compound 324], the MIC was less than 16 µg/mL.

On to `NCCCN(Cc1ccc(-c2c[nH]c(NC(=O)Nc3cc(F)c(F)cc3F)nc2=O)cc1)Cc1ncc[nH]1` [Compound 325], for which the minimum inhibitory concentration (MIC) is greater than 16 µg/mL. The figure for `NCCCN(Cc1ccc(-c2c[nH]c(NC(=O)Nc3ccccc3OC(F)(F)F)nc2=O)cc1)Cc1ncc[nH]1` [Compound 326] is greater than 16 µg/mL; for `O=C(O)CCCNCc1ccc(-c2c[nH]c(NC(=O)Nc3cc(F)c(F)cc3F)nc2=O)cc1` [Compound 327] it is greater than 16 µg/mL; for `O=C(O)CCCNCc1ccc(-c2c[nH]c(NC(=O)Nc3ccccc3OC(F)(F)F)nc2=O)cc1` [Compound 328] it is greater than 16 µg/mL.

On to `O=C(Nc1nc(=O)c(-c2ccc(CNCc3ccncc3)cc2)c[nH]1)Nc1cc(F)c(F)cc1F` [Compound 329], for which the MIC was greater than 16 µg/mL. In the case of `O=C(Nc1nc(=O)c(-c2ccc(CNCc3nccs3)cc2)c[nH]1)Nc1cc(F)c(F)cc1F` [Compound 330], the minimal inhibitory concentration (MIC) was greater than 16 µg/mL.

Regarding `NCCCN(CCCO)Cc1ccc(-c2c[nH]c(NC(=O)Nc3cc(F)c(F)cc3F)nc2=O)cc1` [Compound 331], the minimal inhibitory concentration (MIC) is greater than 16 µg/mL. In the case of `N=C(N)NCCCNCc1ccc(-c2c[nH]c(NC(=O)Nc3ccccc3OC(F)(F)F)nc2=O)cc1` [Compound 332], the minimal inhibitory concentration (MIC) was less than 16 µg/mL.

In the case of `NCCCNCc1ccc(-c2c[nH]c(Nc3nc4ccccc4[nH]3)nc2=O)cc1` [Compound 334], the MIC is less than 16 µg/mL. With `Cn1ccnc1CN(CCCN)Cc1ccc(-c2c[nH]c(NC(=O)Nc3cc(F)c(F)cc3F)nc2=O)cc1` [Compound 336], the minimal inhibitory concentration (MIC) is greater than 16 µg/mL.

`NCCCN(Cc1ccncc1)Cc1ccc(-c2c[nH]c(NC(=O)Nc3cc(F)c(F)cc3F)nc2=O)cc1` [Compound 337]: the MIC is less than 16 µg/mL. For the molecule `NCCCN(Cc1ccncc1)Cc1ccc(-c2c[nH]c(NC(=O)Nc3ccccc3OC(F)(F)F)nc2=O)cc1` [Compound 338], the MIC is less than 16 µg/mL. The figure for `NCCCN(Cc1ccc(-c2c[nH]c(NC(=O)Nc3cc(F)c(F)cc3F)nc2=O)cc1)Cc1nccs1` [Compound 339] is greater than 16 µg/mL; for `NCCCN(Cc1ccc(-c2c[nH]c(NC(=O)Nc3ccccc3OC(F)(F)F)nc2=O)cc1)Cc1nccs1` [Compound 340] it is greater than 16 µg/mL.

With `O=C(Nc1nc(=O)c(-c2ccc(CNCCCCO)cc2)c[nH]1)Nc1cc(F)c(F)cc1F` [Compound 341], the MIC was greater than 16 µg/mL. Next, `O=C(Nc1nc(=O)c(-c2ccc(CNCCCCO)cc2)c[nH]1)Nc1ccccc1OC(F)(F)F` [Compound 342]: greater than 16 µg/mL. Consider `NCCCN(Cc1ccc(-c2c[nH]c(NC(=O)Nc3cc(F)c(F)cc3F)nc2=O)cc1)CC1CC1` [Compound 344], for which the minimum inhibitory concentration (MIC) was less than 16 µg/mL. Regarding `Cn1ccnc1CN(CCCN)Cc1ccc(-c2c[nH]c(NC(=O)Nc3ccccc3OC(F)(F)F)nc2=O)cc1` [Compound 345], the MIC is greater than 16 µg/mL. Next, `CN(CCCNCc1ccc(-c2c[nH]c(NC(=O)Nc3ccccc3OC(F)(F)F)nc2=O)cc1)C(=N)N` [Compound 346]: less than 16 µg/mL; `NCCCN(CCc1ccncc1)Cc1ccc(-c2c[nH]c(NC(=O)Nc3ccccc3OC(F)(F)F)nc2=O)cc1` [Compound 347]: greater than 16 µg/mL; `N=C(N)NCCCN(CCCN)Cc1ccc(-c2c[nH]c(NC(=O)Nc3cc(F)c(F)cc3F)nc2=O)cc1` [Compound 348]: greater than 16 µg/mL.
